“Also recorded” adds a separate entry of the source.
Columns and labels:
PC12 cells = assay: PC12 cobalt-chloride stress test, LDH release; assay type: cell-based, rat; settings: CoCl2 300 μM, 24 hours; compounds 10 μM, NGF 100 ng/ml; FIG. 7B
Experimental: For the neuroprotection assay PC12 cells were stressed with cobalt chloride 300 μM for 24 hours and the activity of Caspase 3/7 and LDH release were measured. NGF 50 ng/ml was used as a positive control for Caspase 3/7 activity and NGF 100 ng/ml was used as a positive control for LDH release.
For the PC12-CoCl2-Assay PC12 cells were used (ATCC: CRL-1721 ™). These cells were growing in RPMI supplemented with 10% Horse Serum (heat inactivated) (Sigma Aldrich, Taufkirchen, Germany), 5% Fetal Bovine Serum (Lonza, Wuppertal, Germany), 2.5% Penicillin/Streptomycin and Glutamine (PAA, Pasching, Austria) as adherent cultures when the plates are coated with Poly-L-ornithine ([…] in water) for at least one hour at 37° C. For passaging PC12-cells were resuspended with Accutase (PAA, Pasching, Austria) for 10 minutes at 37° C. once a week.
For all experiments cells were plated (quadruplicates) on Poly-L-ornithine-coated 96-well plates at a density of 10^4 cells per well. For Caspase 3/7-measurement cells were seeded in a white 96-well-plate to detect luminescence. As positive-control for neuroprotection Nerve Growth Factor (NGF) (50 ng/ml and 100 ng/ml) was used. To induce hypoxia CoCl2 (300 μM) was added to the cells after 20-24 hours. The control-treatment was compound 1a (ENDF1), compound 1b (ENDF3), compound 3a (ENDF2), ENDF4 or Osajin in the concentrations 1 μM and 10 μM in proliferation-media without CoCl2.
For LDH-release cells were centrifuged at 1050 rpm for 5 minutes. After 24 hours of stimulation, the supernatant was mixed in an equal amount with LDH-substrate and incubated in the dark for 30 minutes. Afterwards stop solution was added and absorbance was measured at 490 nm, the blank-values are subtracted.

MEF E16 cells = assay: immunocytochemical staining for DCX and Map2ab in MEF cultures (neuronal differentiation); assay type: cell-based, mouse; settings: 7 days; for number of DCX positive cells / number of DCX/Map2ab double positive cells: Neurobasal plus 1% FCS, 10 μM; for number of DCX positive cells: FIG. 3A; for number of DCX/Map2ab double positive cells: FIG. 3B
Experimental: Following the results from the Luciferase assay described in Example 17, the inventors examined the ability of compounds according to the invention and reference compounds to promote differentiation of MEF E16 cells, using immunocytochemical staining with DCX and Map2ab antibodies.
Compound 1a at 10 and 100 μM was analyzed for its effect on the expression of the neuronal specific markers DCX and Map2ab using primary fetal mouse brain derived cells stimulated in DMEM-KO media.
Mouse embryonic day 16 forebrain cells were prepared as described in Example 17. Before seeding the cells, glass-coverslips were coated and prepared. Glass-coverslips (13 mm) (Menzel GmbH, Braunschweig, Germany) were incubated in 1 M HCl at 65° C. overnight and stored in isopropanol until further use. Coverslips were put into 24-well test plates and air-dried. Subsequently coverslips were incubated for 1 h with 100 μg/ml Poly-L-ornithin solution at 37° C. After washing three times with sterile water coverslips were incubated with 5 μg/ml Laminin solution for 2 h. Immediately after removal of the Laminin solution cells were seeded (40.000 cells/well) in DMEM-KO plus supplement or in NB-B27 plus 1% FCS medium. One day later, cells had attached to the substrate. Cells were stimulated with the above-mentioned substances (in DMEM-KO plus supplement medium: 10 μM and 100 μM; in NB-B27 plus 1% FCS medium: 10 μM) for 3 or 7 days. In the 7 day group, medium including the substances was replaced after three days. Cultures were maintained at 37° C. in a humidified incubator with 5% CO2.
Cells were fixed with phosphate-buffered 4% paraformaldehyde (Sigma-Aldrich, Taufkirchen, Germany). […] The specimens were incubated overnight at 4° C. with the primary antibodies at the following dilutions in FSGB: rabbit anti Doublecortin (DCX) 1:500 (NEB, Frankfurt, Germany) and mouse anti-Map 2a+2b 1:400 (Sigma-Aldrich, Taufkirchen, Germany). After washing three times with FSGB, cells were incubated with the species-specific secondary antibodies, which were conjugated to fluorochromes, for 2 hours in the dark at room temperature. To remove unbound secondary antibodies, cells were washed again with PBS. Nuclear counterstaining was performed with 4′,6′-diamidino-2-phenylindole dihydrochloride hydrate (DAPI) at […] (Sigma Aldrich, Taufkirchen, Germany). Finally, cells were washed again three times with PBS and mounted on microscope slides using Prolong Antifade reagent (Invitrogen, Oreg., USA).
The immunostainings were examined using Olympus IX81 inverted research microscope and the software Volocity 5.3.1. To quantify the number of cells, five indiscriminately chosen visual fields per coverslip were selected under a focus of 40 times. The total number of cells (DAPI positive cells), the number of DCX positive, Map2ab positive, and DCX/Map2ab double positive cells was determined.

Neuro-2a cells = assay: neurite length in Neuro2a cells (GAP-43 staining); assay type: cell-based, mouse; settings: 10 μM, 2 days, compared to control and RA/VPA
Experimental: For more precise analysis of neurite length Neuro2a cells were selected and stimulated for 2 days with RA/VPA as positive control and ENDFs in MEM+10% FCS. Immunocytochemical analysis was performed using GAP43 antibody which is known as a strong neuronal plasticity marker.
Neuro2a cells were grown in MEM with Earle's Salts (PAA, Pasching, Austria) containing 2 mM L-glutamine, 100 μg/ml Penicillin/Streptomycin (PAN Biotech GmbH, Aidenbach, Germany), 100 mM sodium pyruvate (Sigma-Aldrich, Taufkirchen, Germany) and 10% FCS (Lonza, Wuppertal, Germany).
The cells were passaged with 6 ml trypsin 0.5 mg/ml+EDTA 0.22 mg/ml (PAA, Pasching, Austria) two times per week. For analysis of neurite length Neuro2a cells were seeded on coverslips in a 24 well plate coated with Poly-L-ornithine and Laminin in a differentiation media MEM with Earle's Salts (PAA, Pasching, Austria) containing 2 mM L-glutamine, 100 μg/ml Penicillin/Streptomycin (PAN Biotech GmbH, Aidenbach, Germany), 100 mM sodium pyruvate (Sigma-Aldrich, Taufkirchen, Germany) and 1% FCS (Lonza, Wuppertal, Germany) and treated for 2 days with retinoic acid plus valproic acid and compound 1a (ENDF1) 10 μM, compound 1b (ENDF3) 10 μM, compound 3a (ENDF2) 10 μM, or ENDF4 10 μM. Cells were fixed as described in Example 18. Immunostaining was performed using GAP-43 1:500 (AbD Serotec, Oxford, UK).

Row | SMILES | protection from CoCl2 induced LDH release (cell death) (PC12 cells) | expression of the neuronal specific markers DCX and Map2ab (percentage of positive cells) (MEF E16 cells; DMEM-KO medium, 10 and 100 μM, FIG. 2) | number of DCX positive cells (MEF E16 cells) | number of DCX/Map2ab double positive cells (MEF E16 cells) | neurite length and branching (Neuro-2a cells)
1 | COc1cc2c(c(O)c1C(=O)/C=C/c1ccc(O)cc1)C=CC(C)(C)O2 [Compound 1a, (E)-1-(5-hydroxy-7-methoxy-2,2-dimethyl-2H-chromen-6-yl)-3-(4-hydroxyphenyl)prop-2-en-1-one] | partially protected; also recorded: slightly decrease the LDH release | elevated number of DCX positive and of MAP2ab positive cells; also recorded: enhances the expression of the neuronal specific markers DCX and Map2ab | most vigorous effect | highest number of DCX and Map2ab double positive cells | longer growth of neurites as well as more elaborated branches; also recorded: strong and significant increase on neurite length and more elaborated branches
2 | COc1cc2c(c(O)c1C(=O)/C=C/c1ccc(O)cc1)CCC(C)(C)O2 [Compound 1b, (E)-1-(5-hydroxy-7-methoxy-2,2-dimethylchroman-6-yl)-3-(4-hydroxyphenyl)prop-2-en-1-one] | partially protected; also recorded: slightly decrease the LDH release |  | strongly enhanced the number of DCX positive cells | highest number of DCX and Map2ab double positive cells | longer growth of neurites as well as more elaborated branches; also recorded: strong and significant increase on neurite length and more elaborated branches

Source: patent publication US9956199B2, “Chromane-like cyclic prenylflavonoids for the medical intervention in neurological disorders” (priority 2011, dated 2018)
